Test results from article PMC5769128, “Human UDP-Glucuronosyltransferase 2B4 and 2B7 Are Responsible for Naftopidil Glucuronidation in Vitro” (Frontiers in Pharmacology, 2018).
Like-named read-outs stand apart in the source and are kept apart here. Blank lines part the entries; values can stand above or below the molecule they belong to.

Key:
[1] = tested on: UGT2B4/UGT2B7 (NAF glucuronidation); assay: Inhibition of the glucuronidation of NAF enantiomers by specific UGT inhibitors in pooled HLM; details: human, pooled human liver microsomes, pH 7.5, probe R(+)-NAF 50 μM, S(-)-NAF 20 μM
[2] = human, after oral treatment; no reference given; cited from earlier work
[3] = tested on: animals; set-up: method as in Himmel, 1994; details: 100 mg/day, ref Himmel, 1994; cited from earlier work
[4] = human, ref Himmel, 1994, cited from earlier work
[5] = rat, ref Himmel, 1994, cited from earlier work
[6] = biological target: T1, recombinant human UGT1A9 (Homo sapiens, UniProt O60656); assay: Kinetics of NAF enantiomer glucuronidation by recombinant UGT1A9; assay type: in vitro ADME
T1 construct: purchased BD Gentest
T1 sequence (O60656 26-530): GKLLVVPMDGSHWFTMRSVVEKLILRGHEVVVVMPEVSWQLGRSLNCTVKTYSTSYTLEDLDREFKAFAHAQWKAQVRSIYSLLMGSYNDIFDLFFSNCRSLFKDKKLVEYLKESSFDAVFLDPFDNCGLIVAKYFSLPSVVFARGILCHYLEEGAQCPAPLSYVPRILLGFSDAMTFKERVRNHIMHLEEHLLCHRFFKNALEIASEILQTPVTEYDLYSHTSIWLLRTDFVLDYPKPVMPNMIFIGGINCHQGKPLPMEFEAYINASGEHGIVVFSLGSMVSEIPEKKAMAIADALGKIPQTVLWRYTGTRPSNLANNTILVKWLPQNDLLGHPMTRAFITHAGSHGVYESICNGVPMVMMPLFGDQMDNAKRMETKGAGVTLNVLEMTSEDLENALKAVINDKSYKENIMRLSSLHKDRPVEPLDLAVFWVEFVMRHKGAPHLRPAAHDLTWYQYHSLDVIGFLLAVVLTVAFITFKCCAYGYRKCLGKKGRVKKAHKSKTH
Protocol: (§1) All glucuronidation assays were conducted in an incubation volume of 200 μL. Incubations were performed at 37°C in 50 mM Tris–HCl buffer (pH 7.5) with 10 mM magnesium chloride, 1 mg protein/mL of enzyme (microsomes and recombinant human UGTs), alamethicin (100 μg of alamethicin/mg microsomal protein), and NAF enantiomers (2.5–80 μM). The reaction was initiated by the addition of UDPGA (5 mM) and incubated at 37°C in a shaking water bath for 45 min. The reaction was terminated by the addition of 200 μL of ice-cold acetonitrile containing the IS (1 μM) and then centrifuged at 5000 ×g for 10 min at 4°C. The supernatant fraction was injected into the RRLC-MS/MS apparatus. Protein concentration (0.5–2 mg/mL) and incubation time (15–180 min) were optimized in preliminary studies to be within initial linear rate conditions.
(§2) Kinetic parameters were assessed in the HLM, RLM, HKM, RKM, and recombinant human UGTs (UGT2B4, 2B7, and 1A9).

[7] = tested on: human kidney microsomes (HKM); assay: Kinetics of NAF enantiomer glucuronidation by human kidney microsomes; assay type: in vitro ADME
Protocol: as §1, §2

[8] = tested on: human liver microsomes (HLM); assay: Kinetics of NAF enantiomer glucuronidation by human liver microsomes; assay type: in vitro ADME
Protocol: as §1, §2

[9] = set-up: method as in Liu et al., 2017; details: rat plasma; ref Liu et al., 2017; cited from earlier work
[10] = biological target: T2, UGT2B7 (Homo sapiens, UniProt P16662); assay: Kinetics of NAF enantiomer glucuronidation by recombinant UGT2B7; assay type: in vitro ADME; set-up: purchased BD Gentest
T2 sequence (P16662 24-529): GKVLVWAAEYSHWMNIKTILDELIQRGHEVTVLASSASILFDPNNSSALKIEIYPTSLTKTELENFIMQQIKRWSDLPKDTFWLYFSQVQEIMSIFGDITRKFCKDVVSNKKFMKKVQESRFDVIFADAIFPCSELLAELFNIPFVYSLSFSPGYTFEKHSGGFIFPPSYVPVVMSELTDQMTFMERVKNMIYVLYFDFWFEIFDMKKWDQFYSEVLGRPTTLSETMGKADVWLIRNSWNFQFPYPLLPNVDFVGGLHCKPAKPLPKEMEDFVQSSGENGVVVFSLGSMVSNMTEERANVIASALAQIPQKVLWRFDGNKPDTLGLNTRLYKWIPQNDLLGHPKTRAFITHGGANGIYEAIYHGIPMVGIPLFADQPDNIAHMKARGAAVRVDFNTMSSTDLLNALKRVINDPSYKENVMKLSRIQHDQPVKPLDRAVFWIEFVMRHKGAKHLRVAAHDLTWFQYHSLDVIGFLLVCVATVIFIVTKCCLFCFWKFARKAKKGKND
Protocol: as §1, §2

[11] = biological target: T3, recombinant human UGT2B4 (Homo sapiens, UniProt P06133); assay: Kinetics of NAF enantiomer glucuronidation by recombinant UGT2B4; assay type: in vitro ADME
T3 construct: purchased BD Gentest
T3 sequence (P06133 24-528): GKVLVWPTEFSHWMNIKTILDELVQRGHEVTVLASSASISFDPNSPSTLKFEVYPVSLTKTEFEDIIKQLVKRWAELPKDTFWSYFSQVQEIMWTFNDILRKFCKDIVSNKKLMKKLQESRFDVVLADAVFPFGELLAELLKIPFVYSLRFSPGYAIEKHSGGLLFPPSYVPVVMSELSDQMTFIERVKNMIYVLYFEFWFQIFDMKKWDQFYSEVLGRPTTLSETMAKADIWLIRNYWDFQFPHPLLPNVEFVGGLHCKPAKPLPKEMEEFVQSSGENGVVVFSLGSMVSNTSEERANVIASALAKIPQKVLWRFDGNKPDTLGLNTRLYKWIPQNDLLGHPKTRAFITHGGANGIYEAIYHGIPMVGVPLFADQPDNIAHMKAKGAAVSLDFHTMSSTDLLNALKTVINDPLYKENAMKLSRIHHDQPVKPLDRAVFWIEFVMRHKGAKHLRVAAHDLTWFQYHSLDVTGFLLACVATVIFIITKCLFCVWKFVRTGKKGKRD
Protocol: as §1, §2

[12] = tested on: NAF glucuronidation in pooled HLM (UGT2B4/UGT2B7, UGT1A9); assay: Inhibition of the glucuronidation of NAF enantiomers by specific UGT inhibitors in pooled HLM; details: inhibitor 5, 50 μM; pooled HLM
[13] = substrate: COc1ccccc1N1CCN(C[C@@H](O)COc2cccc3ccccc23)CC1; assay: cells, lysate or membranes named; details: pH 7.5, 37.0 °C
[14] = substrate: COc1ccccc1N1CCN(C[C@H](O)COc2cccc3ccccc23)CC1; assay: cells, lysate or membranes named; details: pH 7.5, 37.0 °C
[15] = other: NAF glucuronidation by UGT2B4
[16] = other: NAF glucuronidation by UGT2B7

inhibition at 45 min, 0.25 mM [1]: ~35% | inhibition at 45 min, 2.5 mM [1]: ~55%
Molecule: OC(Cn1cncn1)(Cn1cncn1)c1ccc(F)cc1F [Fluconazole, fluconazole]

Molecule: COc1ccccc1N1CCN(CC(O)COc2cccc3ccccc23)CC1 (stereo not shown) [NAF, Naftopidil]
plasma levels [2]: < 10 µM | adverse findings at high doses [3]: reduced food consumption and body weight gain, apathy, diarrhea, proteinuria, and slightly increased levels of alkaline phosphatase | bioavailability ([4]; Liu et al., 2015, 2017): < 20% | bioavailability [4]: 20% | bioavailability ([5]; Liu et al., 2015, 2017): 6.8–14.5% | bioavailability [5]: 9%

Kinetics type [6]: Substrate inhibition | Vmax [6]: 34 ± 2 pmol/min/mg | Kinetics type [10]: Substrate inhibition | Vmax [10]: 1043 ± 152 pmol/min/mg | Kinetics type [11]: Substrate inhibition | Vmax [11]: 264 ± 38 pmol/min/mg
Molecule: COc1ccccc1N1CCN(CC(COc2cccc3ccccc23)OC2OC(C(=O)O)C(O)C(O)C2O)CC1 (stereo not drawn) [R(+)-NAF-G]
Kinetics type [7]: Michaelis–Menten | Vmax [7]: 2786 ± 138 pmol/min/mg | Kinetics type [8]: Michaelis–Menten | Vmax [8]: 3330 ± 131 pmol/min/mg | level of glucuronide relative to parent enantiomer [9]: six

Kinetics type [6]: Michaelis–Menten | Vmax [6]: 6.0 ± 2.2 pmol/min/mg | Kinetics type [10]: Substrate inhibition | Vmax [10]: 1331 ± 298 pmol/min/mg | Kinetics type [11]: Substrate inhibition | Vmax [11]: 1976 ± 158 pmol/min/mg
Molecule: COc1ccccc1N1CCN(CC(COc2cccc3ccccc23)OC2OC(C(=O)O)C(O)C(O)C2O)CC1 (stereo not drawn) [S(-)-NAF-G]
Kinetics type [7]: Substrate inhibition | Vmax [7]: 1957 ± 100 pmol/min/mg | Kinetics type [8]: Michaelis–Menten | Vmax [8]: 3472 ± 129 pmol/min/mg | level of glucuronide relative to parent enantiomer [9]: threefold

Molecule: O=C(O)c1cccnc1Nc1cccc(C(F)(F)F)c1 [niflumic acid]
Inhibition of NAF glucuronidation [12]: could not inhibit NAF glucuronidation

B1: recombinant human UGT2B4 (Homo sapiens) (protein)
chain: GKVLVWPTEFSHWMNIKTILDELVQRGHEVTVLASSASISFDPNSPSTLKFEVYPVSLTKTEFEDIIKQLVKRWAELPKDTFWSYFSQVQEIMWTFNDILRKFCKDIVSNKKLMKKLQESRFDVVLADAVFPFGELLAELLKIPFVYSLRFSPGYAIEKHSGGLLFPPSYVPVVMSELSDQMTFIERVKNMIYVLYFEFWFQIFDMKKWDQFYSEVLGRPTTLSETMAKADIWLIRNYWDFQFPHPLLPNVEFVGGLHCKPAKPLPKEMEEFVQSSGENGVVVFSLGSMVSNTSEERANVIASALAKIPQKVLWRFDGNKPDTLGLNTRLYKWIPQNDLLGHPKTRAFITHGGANGIYEAIYHGIPMVGVPLFADQPDNIAHMKAKGAAVSLDFHTMSSTDLLNALKTVINDPLYKENAMKLSRIHHDQPVKPLDRAVFWIEFVMRHKGAKHLRVAAHDLTWFQYHSLDVTGFLLACVATVIFIITKCLFCVWKFVRTGKKGKRD
Km [13, 15]: 51 µM | Vmax/Km [13, 15]: 5.2 µL/min/mg | Km [14, 15]: 55 µM | Vmax [14, 15]: 1976 pmol/min/mg

B2: recombinant human UGT2B7 (Homo sapiens) (protein)
chain: GKVLVWAAEYSHWMNIKTILDELIQRGHEVTVLASSASILFDPNNSSALKIEIYPTSLTKTELENFIMQQIKRWSDLPKDTFWLYFSQVQEIMSIFGDITRKFCKDVVSNKKFMKKVQESRFDVIFADAIFPCSELLAELFNIPFVYSLSFSPGYTFEKHSGGFIFPPSYVPVVMSELTDQMTFMERVKNMIYVLYFDFWFEIFDMKKWDQFYSEVLGRPTTLSETMGKADVWLIRNSWNFQFPYPLLPNVDFVGGLHCKPAKPLPKEMEDFVQSSGENGVVVFSLGSMVSNMTEERANVIASALAQIPQKVLWRFDGNKPDTLGLNTRLYKWIPQNDLLGHPKTRAFITHGGANGIYEAIYHGIPMVGIPLFADQPDNIAHMKARGAAVRVDFNTMSSTDLLNALKRVINDPSYKENVMKLSRIQHDQPVKPLDRAVFWIEFVMRHKGAKHLRVAAHDLTWFQYHSLDVIGFLLVCVATVIFIVTKCCLFCFWKFARKAKKGKND
Km [13, 16]: 21 µM | Vmax [13, 16]: 1043 pmol/min/mg | Vmax/Km [13, 16]: 50 µL/min/mg | Km [14, 16]: 38 µM | Vmax [14, 16]: 1331 pmol/min/mg
